{"source": "patent US12030897B2", "about": "“Pyrrolo[2,1-f][1,2,4]triazine derivatives serving as selective HER2 inhibitors and application thereof” (MEDSHINE DISCOVERY INC., priority 2018, dated 2024)", "key": {"[1]": {"system": "human breast cancer BT-474 cell subcutaneous xenograft tumor", "assay": "In vivo efficacy, BT-474 subcutaneous xenograft tumor model", "design": "species or system BALB/c nude mice", "details": "BT-474 xenograft, 100 mg/kg", "description": "Experiment object: to study the in vivo efficacy of the tested compound in human breast cancer BT-474 cell BALB/c nude mouse subcutaneous xenograft tumor model.\nExperimental animals: female BALB/c nude mice, 6 to 8 weeks old, weight: 18 to 22 grams; Supplier Beijing Weitonglihua Laboratory Animal Technology Co., Ltd.\nHuman breast cancer BT474 cells were cultured in a monolayer in vitro. The culture conditions were: ATCC Hybri-Care Medium with 1.5 g/L sodium bicarbonate, 10% fetal bovine serum, 100 U/mL penicillin and 100 μg/mL streptomycin, and 37° C., 5% CO2 incubator. Conventional digestion treatment with pancreatin-EDTA for passage was carried out twice a week. When the cell saturation was 80% to 90%, and the number reached the requirement, the cells were collected, counted and inoculated.\n0.2 mL (1×10^7 cells) of BT474 cells (with matrigel in a volume ratio of 1:1) were subcutaneously inoculated on the right back of each mouse. The grouping and administration were started when the average tumor volume reached about 168 mm^3. (Estrogen tablets were inoculated three days before cell inoculation).\n7.3 the Preparation of the Tested Samples, Tumor Measurement, Experimental Index and Statistical Analysis were the Same as in Experimental Example 6."}, "[2]": {"assay": "Concentration of Example 4 in plasma, tumor tissue and brain tissue (NCI-N87 model, day 21)", "format": "in vivo, BALB/c nude mice", "details": "BALB/c nude, mouse, 100 mg/kg; for concentration at 0.5 h: day 21, 0.5 h after last administration; for concentration at 1 h: day 21, 1 h after last administration; for concentration at 2 h: day 21, 2 h after last administration", "description": "On day 21, the whole blood, tumor tissue, and brain tissue of two mice were collected 0.5 hour, 1 hour, and 2 hours after the last administration. The whole blood was centrifuged to prepare plasma, and the tumor tissue and brain tissue were homogenized to prepare tissue homogenate, and the drug concentration in plasma and tissue homogenate was analyzed by the LC-MS/MS method."}, "[3]": {"assay": "Pharmacokinetic properties in rats", "format": "in vivo", "details": "male, SD", "description": "The tested compound was dissolved in 10% NMP/10% polyethylene glycol-15-hydroxystearate/80% water, vortexed and sonicated to prepare a 2.5 mg/mL clear solution, which was filtered through a millipore filter for use. Three male SD rats were administered intravenously with the candidate compound solution at a dose of 5 mg/kg. The tested compound was dissolved in 10% polyethylene glycol-15-hydroxystearate/90% water (50 mM citrate buffer, pH 3.0), adjusted to pH of about 3.5, vortexed and sonicated to prepare a 5 mg/ml clear solution, which was filtered through a millipore filter for use. Three male SD rats were administered orally with the candidate compound solution at a dose of 50 mg/kg. The whole-blood for a certain period of time was collected to prepare plasma. The drug concentration was analyzed by the LC-MS/MS method, and the pharmacokinetic parameters were calculated by the Phoenix WinNonlin software (Pharsight, USA)."}, "CYP2D6": {"target": "CYP2D6 (Homo sapiens (Human), UniProt P10635)", "sequence (P10635 whole entry)": "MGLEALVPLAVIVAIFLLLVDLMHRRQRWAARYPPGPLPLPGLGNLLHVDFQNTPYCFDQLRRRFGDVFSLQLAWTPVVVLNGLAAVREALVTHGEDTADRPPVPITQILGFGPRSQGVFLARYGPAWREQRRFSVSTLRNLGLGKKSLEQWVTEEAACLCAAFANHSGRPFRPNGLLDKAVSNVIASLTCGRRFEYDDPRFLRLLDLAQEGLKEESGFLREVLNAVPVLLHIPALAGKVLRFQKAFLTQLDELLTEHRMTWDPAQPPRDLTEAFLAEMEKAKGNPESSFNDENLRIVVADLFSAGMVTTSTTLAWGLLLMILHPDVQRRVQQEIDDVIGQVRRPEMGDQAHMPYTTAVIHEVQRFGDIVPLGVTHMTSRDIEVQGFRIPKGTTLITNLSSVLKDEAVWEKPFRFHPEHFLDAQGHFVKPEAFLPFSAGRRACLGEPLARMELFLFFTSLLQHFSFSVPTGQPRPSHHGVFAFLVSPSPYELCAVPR", "assay": "Inhibition of human liver microsomal cytochrome P450 isoenzyme CYP2D6", "format": "in vitro ADME", "details": "human liver microsomes", "description": "The object of this study was to evaluate the effect of Example 4 on the activities of five isoenzymes (CYP1A2, CYP2C9, CYP2C19, CYP2D6 and CYP3A4) of human liver microsomal cytochrome P450 (CYP) using an in vitro test system. The specific probe substrates of CYP450 isozymes were incubated with human liver microsomes and different concentrations of Example 4, and reduced nicotinamide adenine dinucleotide phosphate (NADPH) was added to initiate the reaction. After the reaction was completed, the samples were treated, and liquid chromatography tandem mass spectrometry (LC/MS/MS) was used to detect the metabolites produced by specific substrates."}, "HER1 (ErbB1)": {"target": "HER1 (ErbB1) (Homo sapiens (Human), UniProt P00533)", "sequence (P00533 25-1210)": "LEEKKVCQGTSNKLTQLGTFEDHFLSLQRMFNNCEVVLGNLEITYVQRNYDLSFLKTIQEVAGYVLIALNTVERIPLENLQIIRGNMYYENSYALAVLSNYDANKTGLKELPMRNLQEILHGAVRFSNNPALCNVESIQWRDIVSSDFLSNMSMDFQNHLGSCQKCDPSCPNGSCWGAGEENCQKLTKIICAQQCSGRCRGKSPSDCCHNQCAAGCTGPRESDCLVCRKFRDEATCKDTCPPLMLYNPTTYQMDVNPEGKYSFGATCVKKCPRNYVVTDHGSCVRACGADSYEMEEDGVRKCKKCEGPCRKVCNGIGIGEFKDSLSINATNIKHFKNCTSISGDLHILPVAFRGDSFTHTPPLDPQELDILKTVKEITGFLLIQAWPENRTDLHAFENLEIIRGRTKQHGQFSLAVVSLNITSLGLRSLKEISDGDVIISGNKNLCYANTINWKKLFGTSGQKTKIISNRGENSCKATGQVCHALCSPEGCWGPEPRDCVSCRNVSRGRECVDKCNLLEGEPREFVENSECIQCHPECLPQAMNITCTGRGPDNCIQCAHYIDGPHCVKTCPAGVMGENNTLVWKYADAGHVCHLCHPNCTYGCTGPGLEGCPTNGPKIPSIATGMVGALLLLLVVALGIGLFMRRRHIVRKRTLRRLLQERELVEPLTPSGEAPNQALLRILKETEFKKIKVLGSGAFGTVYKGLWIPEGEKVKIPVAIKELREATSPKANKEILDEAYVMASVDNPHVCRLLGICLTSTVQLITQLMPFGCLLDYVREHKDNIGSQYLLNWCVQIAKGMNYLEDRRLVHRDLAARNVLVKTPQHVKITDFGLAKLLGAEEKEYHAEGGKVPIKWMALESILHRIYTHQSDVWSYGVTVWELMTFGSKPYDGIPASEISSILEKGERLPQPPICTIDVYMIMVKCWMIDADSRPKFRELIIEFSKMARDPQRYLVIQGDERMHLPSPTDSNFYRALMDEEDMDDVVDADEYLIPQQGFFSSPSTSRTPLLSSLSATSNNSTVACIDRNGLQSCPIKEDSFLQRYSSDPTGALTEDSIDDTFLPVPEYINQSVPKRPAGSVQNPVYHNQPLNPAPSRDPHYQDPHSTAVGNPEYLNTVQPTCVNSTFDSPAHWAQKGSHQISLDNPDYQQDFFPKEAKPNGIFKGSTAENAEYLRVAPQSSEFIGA", "assay": "In vitro enzyme activity, HER1 (ErbB1), [γ-33P]ATP filter assay", "format": "biochemical", "description": "The object of this test is to detect the in vitro inhibitory activity of the compound against HER1 (ErbB1), HER2 (ErbB2) and HER4 (ErbB4). The enzymes used in this test were human ErbB1, ErbB2 and ErbB4.\nExperimental Steps and Methods (96-Well Plate):\n5-fold diluted tested compound buffer (5 μL), peptide substrate poly(Glu, Tyr) (4:1) (2.5 μL), ErbB (4-20 ng, 2.5 μL), MnCl2 (50 mM, 1.25 μL), dH2O (3.75 μL) and [γ-^33P]ATP (10 μL) were added, and incubated at 30° C. for 10 min. 3% phosphoric acid was added to terminate the reaction, and 10 μL of the specimen was transferred to Filtermate A. The filter was washed with 75 mM phosphoric acid for three times and methanol once, and transferred to a sealed plastic bag, and a scintillation fluid mixture (4 mL) was added, The intensity of the emitted photons was detected on the scintillation luminescence counter. The photon intensity of the enzyme sample was compared with the photon intensity of the internal control sample, and the level of photon intensity reflected the strength of the tyrosine kinase activity."}, "[4]": {"details": "brain tissue, read-out: Drug concentration, brain tissue"}, "[5]": {"details": "plasma, read-out: Drug concentration, plasma"}, "[6]": {"details": "tumor tissue, read-out: Drug concentration, tumor tissue"}}, "note": "“And” between values parts separate entries of the source, which are not always exact repeats. Equal values may be shown once. Read-outs that look alike come from different tables or passages of the source."}
{"smiles": "Cc1cc(Nc2ncnn3ccc(CN4CCC(N)CC4)c23)ccc1Oc1ccn2ncnc2c1", "note": "[Example 4]", "values": [{"measurement": "RTV", "setting": "[1]; day 20", "result": "0.20 ± 0.02"}, {"measurement": "T/C", "setting": "[1]; day 20", "result": 2.62, "unit": "%"}, {"measurement": "TGI", "setting": "[1]; day 20", "result": 112.93, "unit": "%"}, {"measurement": "Tumor volume", "setting": "[1]; day 20 (head: Day 21), mean ± SEM", "result": "33 mm^3 and 33 ± 3 mm^3"}, {"measurement": "concentration at 0.5 h", "setting": "[2]; [4]", "result": 0.538, "unit": "µM"}, {"measurement": "concentration at 1 h", "setting": "[2]; [4]", "result": 0.631, "unit": "µM"}, {"measurement": "concentration at 2 h", "setting": "[2]; [4]", "result": 1.01, "unit": "µM"}, {"measurement": "concentration at 0.5 h", "setting": "[2]; [5]", "result": 8.6, "unit": "µM"}, {"measurement": "concentration at 1 h", "setting": "[2]; [5]", "result": 7.58, "unit": "µM"}, {"measurement": "concentration at 2 h", "setting": "[2]; [5]", "result": 12.8, "unit": "µM"}, {"measurement": "concentration at 0.5 h", "setting": "[2]; [6]", "result": 9.45, "unit": "µM"}, {"measurement": "concentration at 1 h", "setting": "[2]; [6]", "result": 11.2, "unit": "µM"}, {"measurement": "concentration at 2 h", "setting": "[2]; [6]", "result": 21.4, "unit": "µM"}, {"measurement": "clearance", "setting": "[3]; plasma, rat, IV 5 mg/kg", "result": 25.4, "unit": "mL/min/kg"}, {"measurement": "Vd", "setting": "[3]; plasma, rat, IV 5 mg/kg, read-out: Vdss", "result": 5.86, "unit": "L/kg"}, {"measurement": "bioavailability", "setting": "[3]; plasma, rat, PO 50 mg/kg, read-out: F (oral bioavailability)", "result": 49.6, "unit": "%"}, {"measurement": "AUC(0-inf)", "setting": "[3]; rat plasma, IV 5 mg/kg", "result": 6.95, "unit": "µM·h"}, {"measurement": "AUC(0-t)", "setting": "[3]; rat plasma, IV 5 mg/kg", "result": 6.91, "unit": "µM·h"}, {"measurement": "half-life", "setting": "[3]; rat plasma, IV 5 mg/kg", "result": 3.34, "unit": "h"}, {"measurement": "AUC(0-inf)", "setting": "[3]; rat plasma, PO 50 mg/kg", "result": 34.9, "unit": "µM·h"}, {"measurement": "AUC(0-t)", "setting": "[3]; rat plasma, PO 50 mg/kg", "result": 34.3, "unit": "µM·h"}, {"measurement": "Cmax", "setting": "[3]; rat plasma, PO 50 mg/kg", "result": 3.63, "unit": "µM"}, {"measurement": "Tmax", "setting": "[3]; rat plasma, PO 50 mg/kg", "result": 3.33, "unit": "h"}, {"measurement": "half-life", "setting": "[3]; rat plasma, PO 50 mg/kg", "result": 3.9, "unit": "h"}, {"measurement": "IC50", "setting": "CYP2D6", "result": 25.4, "unit": "µM"}, {"measurement": "IC50", "setting": "HER1 (ErbB1)", "result": 0.161, "unit": "µM"}]}
